# Starred links: 1 amine or outer side, 2 acyl side, 3 side chain; linkers in the order of their positions; H or OH if unused. Positions of bridges follow the written chain, without caps; N, C: chain ends. Residues, ends and D or L forms follow the SMILES beside them. *: point of attachment. C18 diacid = O=C(O)CCCCCCCCCCCCCCCCC(=O)*; γGlu = O=C(O)[C@H](CCC(=O)[*:2])N[*:1]; AEEA = NCCOCCOCC(=O)O
# Molecular target: T1, human natriuretic peptide receptor 2 (hNPR2) (Homo sapiens, UniProt P20594)
# T1 construct: expressed in transfected cells; host or cells: HEK293 (ATCC CRL-1573), clone 35, co-transfected with pGloSensor-42F
# T1 sequence (P20594 23-1047): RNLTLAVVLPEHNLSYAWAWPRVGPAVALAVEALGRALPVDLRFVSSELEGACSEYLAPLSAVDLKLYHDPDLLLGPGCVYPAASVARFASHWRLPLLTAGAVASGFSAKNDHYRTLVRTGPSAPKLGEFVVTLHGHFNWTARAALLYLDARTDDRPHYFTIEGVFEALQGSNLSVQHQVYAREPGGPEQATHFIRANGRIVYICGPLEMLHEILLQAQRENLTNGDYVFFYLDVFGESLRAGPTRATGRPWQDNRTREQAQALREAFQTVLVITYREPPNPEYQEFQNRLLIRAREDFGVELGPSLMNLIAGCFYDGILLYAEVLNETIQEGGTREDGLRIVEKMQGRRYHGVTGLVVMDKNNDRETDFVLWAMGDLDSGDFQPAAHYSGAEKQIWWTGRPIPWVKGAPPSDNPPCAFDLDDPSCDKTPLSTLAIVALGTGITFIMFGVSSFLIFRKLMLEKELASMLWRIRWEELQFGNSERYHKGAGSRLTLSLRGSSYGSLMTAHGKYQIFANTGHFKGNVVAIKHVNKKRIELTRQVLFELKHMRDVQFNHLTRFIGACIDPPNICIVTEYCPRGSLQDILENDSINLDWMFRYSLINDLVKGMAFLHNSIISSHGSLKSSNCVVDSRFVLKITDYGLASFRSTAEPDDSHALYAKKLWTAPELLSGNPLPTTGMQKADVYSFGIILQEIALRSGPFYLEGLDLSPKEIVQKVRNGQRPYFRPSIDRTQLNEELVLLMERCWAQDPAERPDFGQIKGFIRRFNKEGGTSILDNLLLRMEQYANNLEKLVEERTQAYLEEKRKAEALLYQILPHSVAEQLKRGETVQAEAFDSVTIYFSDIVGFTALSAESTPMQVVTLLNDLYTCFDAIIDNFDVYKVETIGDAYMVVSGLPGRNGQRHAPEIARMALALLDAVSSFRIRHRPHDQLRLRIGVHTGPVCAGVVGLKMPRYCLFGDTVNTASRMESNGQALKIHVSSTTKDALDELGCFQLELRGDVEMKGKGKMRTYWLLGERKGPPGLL
# Assay: In vitro hNPR2 activity assay (cGMP GloSensor reporter, HEK293)
# Type: cell-based
# Settings: 0% HSA; HEK293-hNPR2/GloSensor cells
# In short: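 Potency is the EC50 from a four-parameter logistic fit, also expressed relative to the in-plate CNP22 control (×100), with at least two replicates. Compounds (ten concentrations, […], HSA-free diluent with 1% OVA, 0.01% Tween20) were incubated 30 min at 37 °C on HEK293 cells co-expressing hNPR2 and a GloSensor cGMP luciferase. Luminescence detected with Bright-Glo.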
row,SMILES,EC50
1,CC[C@H](C)[C@@H]1NC(=O)[C@H](CCCNC(=N)N)NC(=O)[C@H](CCC(=O)O)NC(=O)[C@H](CC(C)C)NC(=O)[C@@H]2CCCN2C(=O)[C@H](CC(C)C)NC(=O)CNC(=O)[C@H](Cc2ccccc2)NC(=O)[C@@H](NC(=O)CNC(=O)[C@H](CO)NC(=O)[C@H](CO)NC(=O)[C@H](CC(C)C)NC(=O)CNC(=O)[C@H](CCCCN)NC(=O)[C@H](CCCCN)NC(=O)[C@H](CCC(N)=O)NC(=O)[C@H](C)NC(=O)CNC(=O)[C@H](CCCCN)NC(=O)[C@H](Cc2ccc(O)cc2)NC(=O)[C@H](CCCCN)NC(=O)[C@H](CCCNC(=N)N)NC(=O)[C@H](C)NC(=O)[C@H](CCC(N)=O)NC(=O)[C@@H]2CCCN2C(=O)[C@H](Cc2c[nH]cn2)NC(=O)[C@H](CCC(=O)O)NC(=O)[C@H](CCC(N)=O)NC(=O)CC[C@H](NC(=O)CC[C@H](NC(=O)CC[C@H](NC(=O)CC[C@H](NC(=O)CCCCCCCCCCCCCCCCC(=O)O)C(=O)O)C(=O)O)C(=O)O)C(=O)O)CSSC[C@@H](C(=O)O)NC(=O)CNC(=O)[C@H](CC(C)C)NC(=O)CNC(=O)[C@H](CO)NC(=O)[C@H](CC(C)C)NC(=O)[C@H](CO)NC(=O)CNC1=O [compound 9483] ({C18 diacid-γGlu-γGlu-γGlu-γGlu}-QEHPQARKYKGAQKKGLSSGCFGLPLERIGSLSGLGC-OH; disulfide 21-37),0.3 nM

# Same assay, conditions: potency relative to CNP22 (0065)
row,SMILES,hNPR2 0% HSA. [EC50% rel CNP]
1,CC[C@H](C)[C@@H]1NC(=O)[C@H](CCCNC(=N)N)NC(=O)[C@H](CC(=O)O)NC(=O)[C@H](CC(C)C)NC(=O)[C@@H]2CCCN2C(=O)[C@H](CC(C)C)NC(=O)CNC(=O)[C@H](Cc2ccccc2)NC(=O)[C@@H](NC(=O)CNC(=O)[C@H](CCC(N)=O)NC(=O)[C@H](CO)NC(=O)[C@H](CC(C)C)NC(=O)CNC(=O)[C@H](CCCCN)NC(=O)[C@H](CCCCN)NC(=O)[C@H](CCC(N)=O)NC(=O)[C@H](C)NC(=O)CNC(=O)[C@H](CCCCN)NC(=O)[C@H](Cc2ccc(O)cc2)NC(=O)[C@H](CCCCN)NC(=O)[C@H](CCCNC(=N)N)NC(=O)[C@H](C)NC(=O)COCCOCCNC(=O)COCCOCCNC(=O)CC[C@H](NC(=O)CC[C@H](NC(=O)CC[C@H](NC(=O)CC[C@H](NC(=O)CC[C@H](NC(=O)CCCCCCCCCCCCCCCCC(=O)O)C(=O)O)C(=O)O)C(=O)O)C(=O)O)C(=O)O)CSSC[C@@H](C(=O)O)NC(=O)CNC(=O)[C@H](CC(C)C)NC(=O)CNC(=O)[C@H](CO)NC(=O)[C@H](CC(C)C)NC(=O)[C@H](CO)NC(=O)CNC1=O [compound 1453] ({C18 diacid-γGlu-γGlu-γGlu-γGlu-γGlu-AEEA-AEEA}-ARKYKGAQKKGLSQGCFGLPLDRIGSLSGLGC-OH; disulfide 16-32),33.5%
2,CC[C@H](C)[C@@H]1NC(=O)[C@H](CCCNC(=N)N)NC(=O)[C@H](CC(=O)O)NC(=O)[C@H](CC(C)C)NC(=O)[C@@H]2CCCN2C(=O)[C@H](CC(C)C)NC(=O)CNC(=O)[C@H](Cc2ccccc2)NC(=O)[C@@H](NC(=O)CNC(=O)[C@H](CO)NC(=O)[C@H](CO)NC(=O)[C@H](CC(C)C)NC(=O)CNC(=O)[C@H](CCCCN)NC(=O)[C@H](CCCCN)NC(=O)[C@H](CCC(N)=O)NC(=O)[C@H](C)NC(=O)CNC(=O)[C@H](CCCCN)NC(=O)[C@H](Cc2ccc(O)cc2)NC(=O)[C@H](CCCCN)NC(=O)[C@H](CCCNC(=N)N)NC(=O)[C@H](C)NC(=O)[C@H](CCC(N)=O)NC(=O)[C@@H]2CCCN2C(=O)[C@H](Cc2c[nH]cn2)NC(=O)[C@H](CCC(=O)O)NC(=O)[C@H](CCC(N)=O)NC(=O)COCCOCCNC(=O)COCCOCCNC(=O)CC[C@H](NC(=O)CC[C@H](NC(=O)CC[C@H](NC(=O)CC[C@H](NC(=O)CCCCCCCCCCCCCCCCC(=O)O)C(=O)O)C(=O)O)C(=O)O)C(=O)O)CSSC[C@@H](C(=O)O)NC(=O)CNC(=O)[C@H](CC(C)C)NC(=O)CNC(=O)[C@H](CO)NC(=O)[C@H](CC(C)C)NC(=O)[C@H](CO)NC(=O)CNC1=O [compound 1473] ({C18 diacid-γGlu-γGlu-γGlu-γGlu-AEEA-AEEA}-QEHPQARKYKGAQKKGLSSGCFGLPLDRIGSLSGLGC-OH; disulfide 21-37; C-terminus assumed),107.7%
3,CC[C@H](C)[C@@H]1NC(=O)[C@H](CCCNC(=N)N)NC(=O)[C@H](CCC(=O)O)NC(=O)[C@H](CC(C)C)NC(=O)[C@@H]2CCCN2C(=O)[C@H](CC(C)C)NC(=O)CNC(=O)[C@H](Cc2ccccc2)NC(=O)[C@@H](NC(=O)CNC(=O)[C@H](CO)NC(=O)[C@H](CO)NC(=O)[C@H](CC(C)C)NC(=O)CNC(=O)[C@H](CCCCN)NC(=O)[C@H](CCCCN)NC(=O)[C@H](CCC(N)=O)NC(=O)[C@H](C)NC(=O)CNC(=O)[C@H](CCCCN)NC(=O)[C@H](Cc2ccc(O)cc2)NC(=O)[C@H](CCCCN)NC(=O)[C@H](CCCNC(=N)N)NC(=O)[C@H](C)NC(=O)[C@H](CCC(N)=O)NC(=O)[C@@H]2CCCN2C(=O)[C@H](Cc2c[nH]cn2)NC(=O)[C@H](CCC(=O)O)NC(=O)[C@H](CCC(N)=O)NC(=O)CC[C@H](NC(=O)CC[C@H](NC(=O)CC[C@H](NC(=O)CC[C@H](NC(=O)CCCCCCCCCCCCCCCCC(=O)O)C(=O)O)C(=O)O)C(=O)O)C(=O)O)CSSC[C@@H](C(=O)O)NC(=O)CNC(=O)[C@H](CC(C)C)NC(=O)CNC(=O)[C@H](CO)NC(=O)[C@H](CC(C)C)NC(=O)[C@H](CO)NC(=O)CNC1=O [compound 9483] ({C18 diacid-γGlu-γGlu-γGlu-γGlu}-QEHPQARKYKGAQKKGLSSGCFGLPLERIGSLSGLGC-OH; disulfide 21-37),10.2%
4,CC[C@H](C)[C@@H]1NC(=O)[C@H](CCCNC(=N)N)NC(=O)[C@H](CC(=O)O)NC(=O)[C@H](CC(C)C)NC(=O)[C@@H]2CCCN2C(=O)[C@H](CC(C)C)NC(=O)CNC(=O)[C@H](Cc2ccccc2)NC(=O)[C@@H](NC(=O)CNC(=O)[C@H](CCCCN)NC(=O)[C@H](CO)NC(=O)[C@@H](NC(=O)CNC(=O)[C@@H](NC(=O)[C@H](Cc2c[nH]cn2)NC(=O)[C@H](CCC(N)=O)NC(=O)[C@H](C)NC(=O)CNC(=O)[C@H](Cc2c[nH]cn2)NC(=O)[C@H](Cc2ccc(O)cc2)NC(=O)[C@H](CCCCN)NC(=O)[C@H](CCCNC(=N)N)NC(=O)[C@H](C)NC(=O)COCCOCCNC(=O)COCCOCCNC(=O)CC[C@H](NC(=O)CC[C@H](NC(=O)CC[C@H](NC(=O)CCCCCCCCCCCCCCCCC(=O)O)C(=O)O)C(=O)O)C(=O)O)[C@@H](C)O)C(C)C)CSSC[C@@H](C(=O)O)NC(=O)CNC(=O)[C@H](CC(C)C)NC(=O)CNC(=O)[C@H](CO)NC(=O)[C@H](CC(C)C)NC(=O)[C@H](CO)NC(=O)CNC1=O [compound 1420] ({C18 diacid-γGlu-γGlu-γGlu-AEEA-AEEA}-ARKYHGAQHTGVSKGCFGLPLDRIGSLSGLGC-OH; disulfide 16-32),87.5%
5,CC[C@H](C)[C@@H]1NC(=O)[C@H](CCCNC(=N)N)NC(=O)[C@H](CC(=O)O)NC(=O)[C@H](CC(C)C)NC(=O)[C@@H]2CCCN2C(=O)[C@H](CC(C)C)NC(=O)CNC(=O)[C@H](Cc2ccccc2)NC(=O)[C@@H](NC(=O)CNC(=O)[C@H](CO)NC(=O)[C@H](CO)NC(=O)[C@H](CC(C)C)NC(=O)CNC(=O)[C@H](CCCCN)NC(=O)[C@H](CCCCN)NC(=O)[C@H](CCC(N)=O)NC(=O)[C@H](C)NC(=O)CNC(=O)[C@H](CCC(=O)O)NC(=O)[C@H](Cc2ccc(O)cc2)NC(=O)CNC(=O)CNC(=O)CNC(=O)COCCOCCNC(=O)COCCOCCNC(=O)CC[C@H](NC(=O)CCCCCCCCCCCCCCCCC(=O)O)C(=O)O)CSSC[C@@H](C(=O)O)NC(=O)CNC(=O)[C@H](CC(C)C)NC(=O)CNC(=O)[C@H](CO)NC(=O)[C@H](CC(C)C)NC(=O)[C@H](CO)NC(=O)CNC1=O [compound 1378] ({C18 diacid-γGlu-AEEA-AEEA}-GGGYEGAQKKGLSSGCFGLPLDRIGSLSGLGC-OH; disulfide 16-32),28.6%
6,CC[C@H](C)[C@@H]1NC(=O)[C@H](CCCNC(=N)N)NC(=O)[C@H](CC(=O)O)NC(=O)[C@H](CC(C)C)NC(=O)[C@@H]2CCCN2C(=O)[C@H](CC(C)C)NC(=O)CNC(=O)[C@H](Cc2ccccc2)NC(=O)[C@@H](NC(=O)CNC(=O)[C@H](CO)NC(=O)[C@H](CO)NC(=O)[C@@H](NC(=O)CNC(=O)[C@@H](NC(=O)[C@H](CCCCN)NC(=O)[C@H](CCC(N)=O)NC(=O)[C@H](C)NC(=O)CNC(=O)[C@H](Cc2c[nH]cn2)NC(=O)[C@H](Cc2ccc(O)cc2)NC(=O)COCCOCCNC(=O)COCCOCCNC(=O)CC[C@H](NC(=O)CCCCCCCCCCCCCCCCC(=O)O)C(=O)O)[C@@H](C)O)C(C)C)CSSC[C@@H](C(=O)O)NC(=O)CNC(=O)[C@H](CC(C)C)NC(=O)CNC(=O)[C@H](CO)NC(=O)[C@H](CC(C)C)NC(=O)[C@H](CO)NC(=O)CNC1=O [compound 1303] ({C18 diacid-γGlu-AEEA-AEEA}-YHGAQKTGVSSGCFGLPLDRIGSLSGLGC-OH; disulfide 13-29),25.5%
7,CC[C@H](C)[C@@H]1NC(=O)[C@H](CCCNC(=N)N)NC(=O)[C@H](CC(=O)O)NC(=O)[C@H](CC(C)C)NC(=O)[C@@H]2CCCN2C(=O)[C@H](CC(C)C)NC(=O)CNC(=O)[C@H](Cc2ccccc2)NC(=O)[C@@H](NC(=O)CNC(=O)[C@H](CO)NC(=O)[C@H](CO)NC(=O)[C@H](CC(C)C)NC(=O)CNC(=O)[C@H](CCCCN)NC(=O)[C@H](CCCCN)NC(=O)[C@H](CCC(N)=O)NC(=O)[C@H](C)NC(=O)CNC(=O)[C@H](CCC(=O)O)NC(=O)[C@H](Cc2ccc(O)cc2)NC(=O)COCCOCCNC(=O)COCCOCCNC(=O)CC[C@H](NC(=O)CCCCCCCCCCCCCCCCC(=O)O)C(=O)O)CSSC[C@@H](C(=O)O)NC(=O)CNC(=O)[C@H](CC(C)C)NC(=O)CNC(=O)[C@H](CO)NC(=O)[C@H](CC(C)C)NC(=O)[C@H](CO)NC(=O)CNC1=O [compound 1227] ({C18 diacid-γGlu-AEEA-AEEA}-YEGAQKKGLSSGCFGLPLDRIGSLSGLGC-OH; disulfide 13-29),38.2%
